Measurements taken from patent publication US20240252689A1, “POLY-ADP RIBOSE (PAR) TRACKER OPTIMIZED SPLIT-PROTEIN REASSEMBLY PAR DETECTION REAGENTS” (THE BOARD OF REGENTS OF THE UNIVERSITY OF TEXAS SYSTEM, priority 2021, published 2024).

Columns and labels:
PARylation [1] = test: Live cell imaging of 3D cancer spheroids of MCF7 cells expressing PAR-T ddGFP; type: cell-based; conditions: for distribution of PARylation (PAR) throughout the spheroid: MCF7 3D cancer spheroids
Experimental: FIGS. 8C and 8D provides representative images (8C) and quantification (8D) of Z-projections of cancer spheroids formed using MCF-7 cells subjected to Dox-induced expression of the PAR-T ddGFP. The spheroids were treated with 20 µM Niraparib and live-cell imaging was performed at the indicated times. (Left) The spheroids were divided into ‘outer’ and ‘core’ sections for quantification as indicated by the white circles. (Right) Enlargement of the indicated areas from the left panels (yellow, core; pink, outer) as indicated.
Cancers are heterogenous tissues with spatial variation in nutrient availability, and stress. Since PARylation is enhanced by stressors such as DNA damage, another experiment tested whether there was any spatial variation in PARylation levels. Live cell imaging was performed in 3D cancer spheroids using MCF7 cells expressing the WWE based PAR-T sensors. […] A time course of Niraparib treatment in 3D cancer spheroids was performed to visualize spatio-temporal changes in PAR levels over time.

PARP-1 activation = test: Live-cell luminescence assay with PAR-T NanoLuc, UV-induced PARP-1 activation in MDA-MB-231-Luc cells; type: cell-based, human; conditions: for time-dependent, UV-mediated increase in PAR-T NanoLuc signal (PARP-1 activation): time course after UV radiation, 20 μM for 2 hr prior to UV
Experimental: Each point in the graph represents the mean±SEM of the relative levels of luminescence from PAR-T NanoLuc normalized to full Nano luciferase (n=3).
FIG. 11B provides quantitative analysis of Western blot analysis and bioluminescence imaging (shown in FIG. 4B) of 231-PAR-T NanoLuc cells treated with 20 μM Niraparib or 20 μM PARG inhibitor for 2 hr prior to UV radiation. Each bar in the graph represents the mean±SEM of the relative intensities (n=3, one-way ANOVA, *p<0.05, **p<0.001, and ***p<0.0001; ns=not significant).
(§1) Cells were treated with various inhibitors as described herein. For inhibition of nuclear PARPs, cells were treated with PJ-34 ([…]; Enzo, ALX-270) or Olaparib (20 µM; MedChem Express, HY-10162) for 2 hours. For inhibition of PARG, cells were treated with PDD 00017273 (20 µM; MedChem Express, HY-108360) for 2 hours. For UV-induced DNA damage, the cells were harvested 15 minutes after treatment with 50 mJ/cm2 UV irradiation.
DNA damaging agents such as UV irradiation and y irradiation activate PARP-1 and cause PARylation of itself and other DNA damage repair proteins that are recruited to the damage sites. […] MDA-MB-231-Luc cells were subjected to doxycycline-induced expression of PAR-T, and then treated UV radiation. […] In a similar manner, a time course of UV-mediated PARP-1 activation using live cell luminescence assay with the PAR-T NanoLuc sensor was performed. The MDA-MB-231 cells were subjected to Dox-induced expression of PAR-T NanoLuc or intact Nano luciferase and then exposed the cells to UV radiation.
Next, a set of assays was performed to compare the performance of the PAR-T sensors to conventional PAR detection reagents (WWE-Fc and PAR antibody) in a variety of assays. The following assays were compared (1) Western blotting with WWE-Fc versus fluorescence assay with PAR-T ddGFP, which were performed in conjunction with ARH3-mediated degradation of PAR in vitro (FIG. 11A); (2) Western blotting with WWE-Fc versus live-cell luciferase assay using PAR-T NanoLuc, which were performed in conjunction with UV-induced DNA damage in MDA-MB-231 cells (FIG. 11B); (3) enzyme-linked immunosorbent assay (ELISA) with PAR antibody versus fluorescence assay with PAR-T ddGFP, which were performed using immobilized PAR (FIG. 11C); and (4) immunofluorescence with WWE-Fc versus live-cell imaging using PAR-T ddGFP, which were performed using H2O2-mediated PARP-1 activation in 293T cells (FIG. 11D and FIG. 11E).

PARylation [2] = test: Recombinant PAR-T sensors incubated with lysates from treated Hela cells; type: cell-based
Experimental: as §1
Cells were cultured and treated as described above before the preparation of cell extracts. […]
Dimerization-dependent GFP is a genetically encoded sensor that was initially developed to study protein interactions. In this system, a pair of a quenched GFP (ddGFPA) and a non-fluorogenic GFP (ddGFPB) form a heterodimer that can result in improved fluorescence. In this example, a ddGFP-based fluorescence sensor (fluorescent PAR-Trackers or PAR-T) was designed to allow for live cell imaging, with high signal-noise ratio. To achieve this, the various ADPR reader domains (ARBDs) were fused to ddGFP-A/B and purified as recombinant proteins (FIG. 1A, FIG. 1B, FIG. 6A). […] Similarly, degradation of PAR chains by ARH3 was detected in a time (FIG. 1F and FIG. 1G) and dose (FIG. 6H) dependent way. […]

PAR accumulation = test: Time course of PAR-T NanoLuc bioluminescence of breast cancer cells injected into mice; type: in vivo, C57/BL6 mice; conditions: 24-hr time course post injection
Source text: FIGS. 5D to 5E show analysis of a time course of bioluminescence imaging of 231-PAR-T NanoLuc cells transplanted into mice and treated with PARG inhibitor. Bioluminescence imaging (5D) with the region of interest expanded (5E). Each point in the graph in (5F) represents the mean±SEM of the relative levels of luminescence of NanoLuc of PAR-T NanoLuc (n=4).
PAR accumulation in breast cancer cells injected into C57/BL6 mice without establishing xenograft tumors over a 24-hr time course post injection, with or without PARG inhibitor treatment (FIG. 5D, FIG. 5E and FIG. 5F) was measured. PAR accumulation was readily detected in the breast cancer cells injected into the mice in the absence of treatment.

PARylation [3] = test: PAR-T luminescence in MDA-MB-231-luc xenograft tumors; type: in vivo; conditions: xenograft tumors in mice
Experimental: In the next experiment, the utility of luminescent PAR-T sensor to measure the levels of PARylation in vivo was tested. Xenograft tumors were established using the MDA-MB-231-luc cells the expression of PAR-T was induced by doxycycline (FIG. 5A). […] The luminescence from PAR-T was normalized to the firefly luminescence to confidently measure the differences in PARylation, while accounting for the variability in tumor sizes.

Compound | distribution of PARylation (PAR) throughout the spheroid (PARylation [1]) | PAR levels in cells at the core versus outer layer of the spheroid (PARylation [1]; time course, 20 µM Niraparib) | decrease in PAR-T NanoLuc signal (PARP-1 activation; UV-treated cells pre-treated with compound, versus basal) | decrease in PAR-T NanoLuc signal (PARP-1 activation; basal (-UV) conditions, 20 μM, 2 hr) | time-dependent, UV-mediated increase in PAR-T NanoLuc signal (PARP-1 activation) (PARP-1 activation) | distribution of PARylation (PAR) throughout the spheroid (PARylation [1]; WWE based PAR-T sensors, 20 uM Niraparib) | fluorescence of recombinant PAR-T sensors with cell lysates (PARylation [2]; lysates from cells treated with both H2O2 and PARG inhibitor) | fluorescence of recombinant PAR-T sensors with cell lysates (PARylation [2]; lysates from treated Hela cells) | luminescence from PAR-T NanoLuc (PAR accumulation) | PARylation detected by PAR-T luminescence normalized to firefly luminescence (PARylation [3]) | PAR-T luminescence (PARP-1 activation; UV radiation of treated cells)
NC(=O)c1cccc2cn(-c3ccc([C@@H]4CCCNC4)cc3)nc12 [Niraparib] | inhibited | relatively resistant | greater | 50% | but not in Niraparib-treated cells | – | – | – | – | – | –
O=C(c1cc(Cc2n[nH]c(=O)c3ccccc23)ccc1F)N1CCN(C(=O)C2CC2)CC1 [olaparib, Olaparib] | – | – | – | – | – | inhibited | – | – | – | – | –
PDD 00017273 [PARG inhibitor] | – | – | – | – | more spontaneous | – | pronounced increase in fluorescence | increase in fluorescence | increased significantly by 6 hr and then diminished by 24 hr | increase in PARylation | enhanced PAR-T luminescence
